Source: the supplement of paper PMC10307832

How the values were obtained:
Test in all cases: relative viability (nuclei count vs DMSO), 5 days (fraction); higher = more cells survive
Cediranib + Palbociclib = compound: COc1cc2c(Oc3ccc4[nH]c(C)cc4c3F)ncnc2cc1OCCCN1CCCC1 [Cediranib] + CC(=O)c1c(C)c2cnc(Nc3ccc(N4CCNCC4)cn3)nc2n(C2CCCC2)c1=O [Palbociclib] (partner 0.5 µM)
In short: (§1)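 Cells from lung cancer lines were seeded into 1536-well plates and, one day later, dosed by pin tool. Treatments were either a single drug or a fixed dose of an anchor drug with five library-drug doses (not always all listed) in √10 steps. After 5 days, nuclei were stained in a one-step fixation (final 0.05% Triton X-100, 1% formaldehyde, 1 ug/ml Hoechst) and counted on 4× images, and relative viability is the treated-to-vehicle nuclei ratio, as the median of duplicate plates.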

Cediranib + Bortezomib = compound: COc1cc2c(Oc3ccc4[nH]c(C)cc4c3F)ncnc2cc1OCCCN1CCCC1 [Cediranib] + CC(C)C[C@H](NC(=O)[C@H](Cc1ccccc1)NC(=O)c1cnccn1)B(O)O [Bortezomib] (partner 0.002 µM)
In short: as §1

Cediranib + Crizotinib = compound: COc1cc2c(Oc3ccc4[nH]c(C)cc4c3F)ncnc2cc1OCCCN1CCCC1 [Cediranib] + C[C@@H](Oc1cc(-c2cnn(C3CCNCC3)c2)cnc1N)c1c(Cl)ccc(F)c1Cl [Crizotinib] (partner 1 µM)
In short: as §1

Cediranib + Phenformin = compound: COc1cc2c(Oc3ccc4[nH]c(C)cc4c3F)ncnc2cc1OCCCN1CCCC1 [Cediranib] + N=C(N)NC(=N)NCCc1ccccc1 [Phenformin] (partner 250 µM)
In short: as §1

Cell Line: UMC-11
- relative viability (Cediranib + Palbociclib; first compound 0.04 µM): 0.345
- relative viability (Cediranib + Palbociclib; first compound 0.1265 µM): 0.341
- relative viability (Cediranib + Palbociclib; first compound 0.4 µM): 0.315
- relative viability (Cediranib + Palbociclib; first compound 1.265 µM): 0.328
- relative viability (Cediranib + Palbociclib; first compound 4 µM): 0.359
- relative viability (Cediranib + Bortezomib; first compound 0.04 µM): 1.02
- relative viability (Cediranib + Bortezomib; first compound 0.1265 µM): 0.442
- relative viability (Cediranib + Bortezomib; first compound 0.4 µM): 0.683
- relative viability (Cediranib + Bortezomib; first compound 1.265 µM): 0.628
- relative viability (Cediranib + Bortezomib; first compound 4 µM): 0.547
- relative viability (Cediranib + Crizotinib; first compound 0.04 µM): 0.612
- relative viability (Cediranib + Crizotinib; first compound 0.1265 µM): 0.573
- relative viability (Cediranib + Crizotinib; first compound 0.4 µM): 0.512
- relative viability (Cediranib + Crizotinib; first compound 1.265 µM): 0.656
- relative viability (Cediranib + Crizotinib; first compound 4 µM): 0.427
- relative viability (Cediranib + Phenformin; first compound 0.04 µM): 0.342
- relative viability (Cediranib + Phenformin; first compound 0.4 µM): 0.346
- relative viability (Cediranib + Phenformin; first compound 4 µM): 0.3
